Like-named read-outs stand apart in the source and are kept apart here. Marks after values point to notes of the source that are not given here.
Key:
[1] = renal transplant recipients in absence of strong inhibitors; cited from earlier work
[2] = set-up: method as in PMID 25708713; settings: co-administered with ritonavir; cited from earlier work
[3] = Tacrolimus pharmacokinetic profiles and trough level monitoring before and after switch of booster from ritonavir to cobicistat in an HIV-infected kidney transplant recipient; assay type: in vivo, human; settings: for AUC(0-t): read-out: AUC264h; for half-life: read-out: T1/2 (elimination half-life) (converted)
Description: Due to the high daily pill burden (i.e., 4 tablets mycophenolate mofetil, 10 tablets for the antiretroviral regimen, 7 pills for the treatment of cardiovascular risk factors, and 8 pills for additional indications), and with new combination antiretroviral pills available, a treatment simplification was envisaged. A feasible antiretroviral treatment considering the multi-drug resistant HIV virus was the combination of dolutegravir (INSTI), rilpivirine (NNRTI), maraviroc and the single tablet combination including emtricitabine, tenofovir alafenamide and darunavir boosted with cobicistat (darunavir/c). […] Due to the inducing properties of ritonavir, we predicted that a switch to cobicistat could result in higher tacrolimus concentrations. During three weeks before and three weeks after the switch we closely monitored tacrolimus drug levels (3 full pharmacokinetic profiles before and after changing the booster) to evaluate the effect on tacrolimus exposure (Figs. 1, 2).
Fig. 1 Tacrolimus profiles during ritonavir-boosted and cobicistat-boosted antiretroviral regimens. Three 11 days pharmacokinetic tacrolimus concentrations profiles in blue while on the ritonavir-boosted regimen before the switch and in red while on the cobicistat-boosted regimen after the switch. *For practical reasons (weekend, holidays) tacrolimus trough levels were measured on day 9 at the end of the third pharmacokinetic profile and on day 10 at the end of the sixth pharmacokinetic profile
Fig. 2 Antiretroviral treatment and tacrolimus trough levels before and after therapy switch. Blue bars indicate drugs before switch and blue dots tacrolimus levels before switch. Red bars indicate drugs after switch and red dots indicate tacrolimus trough levels after switch.

[4] = as above; assay type: in vivo, human; settings: co-administered with darunavir/ritonavir 800/100 mg once daily, 3rd pharmacokinetic profile, dosing interval 10 days for practical reasons
[5] = human, plasma, oral, co-administered with darunavir/cobicistat 800/150 mg once daily, 1st pharmacokinetic profile
[6] = human, plasma, oral, co-administered with darunavir/cobicistat 800/150 mg once daily, 2nd pharmacokinetic profile
[7] = human, plasma, oral, co-administered with darunavir/cobicistat 800/150 mg once daily, 3rd pharmacokinetic profile

C=CC[C@@H]1/C=C(\C)C[C@H](C)C[C@H](OC)[C@H]2O[C@@](O)(C(=O)C(=O)N3CCCC[C@H]3C(=O)O[C@H](/C(C)=C/[C@@H]3CC[C@@H](O)[C@H](OC)C3)[C@H](C)[C@@H](O)CC1=O)[C@H](C)C[C@@H]2OC [Tacrolimus, tacrolimus]
CL/F [1]: 6.7 L/h | T1/2 [1]: 15.6 h | increase of tacrolimus elimination half-life [2]: sevenfold | increase of tacrolimus exposure [2]: 57 fold | Tmax ([3]; co-administered with darunavir/cobicistat 800/150 mg once daily, 1st pharmacokinetic profile): 2 h | C0h (pre-dose plasma concentration) ([3]; co-administered with darunavir/cobicistat 800/150 mg once daily, 2nd pharmacokinetic profile, tacrolimus once every 11 days): 4.1 µg/L | C0h (pre-dose plasma concentration) ([3]; co-administered with darunavir/cobicistat 800/150 mg once daily, 3rd (sixth overall) pharmacokinetic profile, dosing interval 10 days for practical reasons): 4.0^a µg/L | C0h (pre-dose plasma concentration) ([3]; co-administered with darunavir/ritonavir 800/100 mg once daily, 1st pharmacokinetic profile, tacrolimus once every 11 days): 7.3 µg/L | C0h (pre-dose plasma concentration) ([3]; co-administered with darunavir/ritonavir 800/100 mg once daily, 2nd pharmacokinetic profile, tacrolimus once every 11 days): 6.1 µg/L | C0h (pre-dose plasma concentration) ([3]; darunavir/cobicistat 800/150 mg once daily section, 1st profile, trough at the day of the switch, i.e. last trough on darunavir/ritonavir, immediately before darunavir/cobicistat): 6.8^b µg/L | tacrolimus trough level ([3]; eleven months post pharmacokinetic booster switch (cobicistat-boosted regimen), dosing interval 11 days): 2.1 µg/L | Cmax ([3]; human, plasma, oral, 0.5 mg, co-administered with darunavir/ritonavir 800/100 mg once daily, 1st pharmacokinetic profile): 15.1 ng/mL | Cmax ([3]; human, plasma, oral, 0.5 mg, co-administered with darunavir/ritonavir 800/100 mg once daily, 2nd pharmacokinetic profile): 17.7 ng/mL | Cmax ([3]; human, plasma, oral, 0.5 mg, co-administered with darunavir/ritonavir 800/100 mg once daily, 3rd pharmacokinetic profile): 17.6 ng/mL | Cmax [3, 5]: 11.7 ng/mL | AUC(0-t) ([3]; human, plasma, oral, co-administered with darunavir/cobicistat 800/150 mg once daily, 1st pharmacokinetic profile, dosing interval 11 days): 1750 ng·h/mL | half-life [3, 5]: 226 h | Cmax [3, 6]: 13.7 ng/mL | AUC(0-t) ([3]; human, plasma, oral, co-administered with darunavir/cobicistat 800/150 mg once daily, 2nd pharmacokinetic profile, dosing interval 11 days): 1870 ng·h/mL | half-life [3, 6]: 175 h | Tmax ([3]; human, plasma, oral, co-administered with darunavir/cobicistat 800/150 mg once daily, 2nd pharmacokinetic profile, read-out: Tmax): 8 h | Cmax [3, 7]: 12.6 ng/mL | half-life [3, 7]: 183 h | Tmax ([3]; human, plasma, oral, co-administered with darunavir/cobicistat 800/150 mg once daily, 3rd pharmacokinetic profile, read-out: Tmax): 4 h | AUC(0-t) ([3]; human, plasma, oral, co-administered with darunavir/ritonavir 800/100 mg once daily, 1st pharmacokinetic profile, dosing interval 11 days): 2650 ng·h/mL | half-life ([3]; human, plasma, oral, co-administered with darunavir/ritonavir 800/100 mg once daily, 1st pharmacokinetic profile): 227 h | Tmax ([3]; human, plasma, oral, co-administered with darunavir/ritonavir 800/100 mg once daily, 1st pharmacokinetic profile, read-out: Tmax): 8 h | AUC(0-t) ([3]; human, plasma, oral, co-administered with darunavir/ritonavir 800/100 mg once daily, 2nd pharmacokinetic profile, dosing interval 11 days): 2380 ng·h/mL | half-life ([3]; human, plasma, oral, co-administered with darunavir/ritonavir 800/100 mg once daily, 2nd pharmacokinetic profile): 275 h | Tmax ([3]; human, plasma, oral, co-administered with darunavir/ritonavir 800/100 mg once daily, 2nd pharmacokinetic profile, read-out: Tmax): 4 h | half-life ([3]; human, plasma, oral, co-administered with darunavir/ritonavir 800/100 mg once daily, 3rd pharmacokinetic profile): 266 h | Tmax ([3]; human, plasma, oral, co-administered with darunavir/ritonavir 800/100 mg once daily, 3rd pharmacokinetic profile, read-out: Tmax): 4 h | AUC(0-t) ([3]; human, plasma, oral, co-administered with darunavir/cobicistat 800/150 mg once daily, 3rd (sixth overall) pharmacokinetic profile, dosing interval 10 days for practical reasons): 1240 ng·h/mL | C0h (pre-dose plasma concentration) [4]: 6.2^a µg/L | AUC(0-t) ([4]; human, plasma, oral, read-out: AUC264h): 2350 ng·h/mL

Reference: publication PMC10163738, “Switch from a ritonavir to a cobicistat containing antiretroviral regimen and impact on tacrolimus levels in a kidney transplant recipient” (Virology Journal, 2023)
